Measured values: publication PMC10958470 (Virus Research, 2024)
Values joined by “and” are separate entries in the source; they are usually repeats but may differ in a detail not shown here. Equal values may be shown once. Where a name gives a salt, the structure may show the parent alone. Read-outs that look alike come from different tables or passages of the source.

Columns and labels:
[1] = molecular target: SARS-CoV-2 RdRp nsp12/7/8 complex (Severe acute respiratory syndrome coronavirus 2, UniProt P0DTD1); test: biochemical; format: biochemical; settings: for inhibition at 20 µM: read-out: RdRp Inhibition [%] 20 µM (PS Inhibition RdRp [%])
[2] = molecular target: SARS-CoV-2 helicase (nsp13) (Severe acute respiratory syndrome coronavirus 2, UniProt P0DTD1); test: biochemical; format: biochemical
[3] = system: annealed dsDNA substrate
[4] = molecular target: SARS-CoV-2 nsp13 NTPase activity (Severe acute respiratory syndrome coronavirus 2, UniProt P0DTD1); test: biochemical; format: biochemical; settings: for inhibition at 20 µM: read-out: ATPase inhibition [%] 20 µM (HC Helicase ATPase inhibition [%])
[5] = molecular target: SARS-CoV-2 helicase (Severe acute respiratory syndrome coronavirus 2, UniProt P0DTD1); format: binding
[6] = read-out: Helicase Inhibition [%] 20 µM (PS Inhibition Helicase [%])
[7] = read-out: DTT Helicase unwinding inhibition [%] 2.5 µM triplicates

Row | Compound | RdRp Inhibition [%] 20 µM (PS Inhibition RdRp [%]) [1] [%] | Helicase Inhibition [%] 20 µM (PS Inhibition Helicase [%]) [2] [%] | PicoGreen effect [%] 20 µM [3] [%] | IC50 ([1]; RdRp IC50 [µM]) [µM] | inhibition at 20 µM [1] [%] | inhibition at 20 µM [2, 6] [%] | further results
1 | O=C1OC2(c3cc(I)c(O)c(I)c3Oc3c2cc(I)c(O)c3I)c2c(Cl)c(Cl)c(Cl)c(Cl)c21 [rose-bengal-lactone] | 99.44 | −2.61 | 35.69 |  |  |  | 
2 | O=c1c(O)c(-c2ccc(O)cc2O)oc2cc(O)cc(O)c12 [morin hydrate (aurantica), morin hydrate] | 95.67 | 39.33 | 20.36 |  |  |  | IC50 ([1]; read-out: RdRp IC50): 5.96 µM
3 | tyrphostin-AG-835 | 84.15 | 7.56 | 11.5 |  |  |  | IC50 ([1]; read-out: RdRp IC50): 9.64 µM
4 | C=CCn1c(CSc2ccccc2[N+](=O)[O-])n[nH]c1=S [SSYA10-001] |  |  |  |  |  |  | inhibition of helicase unwinding activity in presence of DTT [2]: effectively eliminated the inhibition; inhibition of helicase NTPase activity, absence of DTT [4]: inhibits NTPase activity only in the absence of DTT
5 | Cc1cc(N)c2ccccc2[n+]1CCCCCCCCCC[n+]1c(C)cc(N)c2ccccc21 [dequalinium chloride] |  |  | −4.04 | 4.07 | 94.6 | 25.6 | 
6 | O=C(O[C@@H]1Cc2c(O)cc(O)cc2O[C@@H]1c1cc(O)c(O)c(O)c1)c1cc(O)c(O)c(O)c1 [(−)-epigallocatechin gallate] | 85.49 |  |  |  |  | 96.4 | DTT nsp13 inhibition [%] 20 µM (DTT HC Helicase inhibition [%]) [2]: 78.10%; inhibition at 2.5 µM [2, 7]: 73.5%; DTT Helicase ATPase activity PLUS DNA substrate 2 µM [4]: 31.66; DTT Helicase ATPase activity [%] 2 µM [4]: 43.42%; gain of ATPase activity reduction in the presence of dsDNA substrate [4]: 10–15%; Helicase Tm °C 20 µM [5]: 38.4 °C; Helicase Tm °C 100 µM [5]: 39.6 °C; effect on helicase Tm [5]: did not result in a Tm change
7 | CN(C)[C@@H]1C(O)=C(C(N)=O)C(=O)[C@@]2(O)C(O)=C3C(=O)c4c(O)cccc4[C@@](C)(O)[C@H]3[C@H](O)[C@@H]12 [oxytetracycline] |  |  | 19.99 | 16.1 | 100 | 16.4 | 
8 | N#C/C(=C\c1ccc(O)c(O)c1)C(=O)OCCc1cccs1 [2-TEDC] | 97.86 | 8.66 | 7.15 |  |  |  | IC50 ([1]; read-out: RdRp IC50): 7.99 µM
9 | O=C(N/N=C/c1ccc([N+](=O)[O-])o1)c1cc([N+](=O)[O-])cc([N+](=O)[O-])c1O [nifursol] |  |  | 8.54 | 11.5 | 100 | 5.5 | 
10 | FPA-124 | 7.70 |  | −3.30 |  |  |  | DTT nsp13 inhibition [%] 20 µM (DTT HC Helicase inhibition [%]) [2]: 64.76%
11 | CC(C)c1ccccc1Cc1cc(C(=O)Nc2ccc(S(=O)(=O)c3ccccc3C(C)(C)C)cc2)c(O)c(O)c1O [TW-37] | 89.4 | 3.76 | 3.9 |  |  |  | IC50 ([1]; read-out: RdRp IC50): 13.7 µM
12 | Nc1ncnc2c1ncn2[C@@H]1O[C@H](COP(=O)(O)OP(=O)(O)OP(=O)(O)O)[C@@H](O)[C@H]1O [ATP, adenosine triphosphate] |  |  |  |  |  |  | apparent Kmapp (RdRp substrates) [1]: 102.7 µM; Kmapp (mM) ATP, - DTT [2]: 1.9 mM
13 | CCOc1ccc2nc3cc(N)ccc3c(N)c2c1 [ethacridine lactate] |  |  | 32.09 | 9.96 | 80.3 | 35.5 | 
14 | O=C(O)c1c(Cl)c(Cl)c(Cl)c(Cl)c1-c1c2cc(I)c(=O)c(I)c-2oc2c(I)c(O)c(I)cc12 [rose bengal sodium salt] |  |  | 30.91 | > 20 | 98 | 21.5 | 
15 | O=C(c1cc(O)c(O)c(O)c1)c1ccc(O)c(O)c1O [exifone] |  |  | 8.87 |  | 36.6 | 100 | DTT Helicase unwinding inhibition [%] 2.5 µM triplicates [2]: 99.91%; inhibition at 2.5 µM [2, 7]: 99.9%; inhibition at 2.5 µM ([2]; read-out: Helicase unwinding inhibition 2.5 µM triplicates): 49.9%; DTT Helicase ATPase activity PLUS DNA substrate 2 µM [4]: 2.64; DTT Helicase ATPase activity [%] 2 µM [4]: 14.53%; Helicase ATPase activity PLUS DNA substrate 2 µM [4]: 4.96; Helicase ATPase activity [%] 2 µM [4]: 11.33%; gain of ATPase activity reduction in the presence of dsDNA substrate [4]: 10–15%; remaining NTPase activity [4]: 14.5%; inhibition at 20 µM [4]: 104%; Helicase Tm °C 20 µM [5]: 38.3 °C; Helicase Tm °C 100 µM [5]: 37.8 °C; effect on helicase Tm [5]: decrease in Tm
16 | Cc1c(Cl)c(C)[n+]([O-])c(Cl)c1-c1noc(-c2cc(O)c(O)c([N+](=O)[O-])c2)n1 [opicapone] |  |  | 6.86 |  | 17.9 |  | DTT nsp13 inhibition [%] 20 µM (DTT HC Helicase inhibition [%]) [2]: 51.40%; IC50 ([2]; DTT Helicase IC50 [µM]): 25.5 µM; IC50 ([2]; Helicase IC50 [µM]): 1.1 µM; inhibition at 20 µM ([2]; read-out: DTT nsp13 inhibition [%] 20 µM (DTT HC Helicase inhibition [%])): > 50%; inhibition at 20 µM [4]: 96.9%
17 | O=C(Nc1ccc2c(O)cc(S(=O)(=O)[O-])cc2c1)Nc1ccc2c(O)cc(S(=O)(=O)[O-])cc2c1.[Na+].[Na+] [disodium 7,7′-(carbonyldiimino) bis(4-hydroxy-2-naphthalenesulfonate)] | 90.5 | 84.75 |  |  |  |  | IC50 ([1]; read-out: RdRp IC50): > 20 µM; DTT Helicase unwinding inhibition [%] 2.5 µM triplicates [2]: 6.27%; DTT nsp13 inhibition [%] 20 µM (DTT HC Helicase inhibition [%]) [2]: 65.72%; IC50 ([2]; read-out: DTT Helicase IC50): > 20 µM; DTT Helicase ATPase activity PLUS DNA substrate 2 µM [4]: 103.05; DTT Helicase ATPase activity [%] 2 µM [4]: 103.17%
18 | OCCOCCN1CCN(C(c2ccccc2)c2ccc(Cl)cc2)CC1 (stereo not shown) [hydroxyzine pamoate] |  |  | 1.28 | 16.5 | 76.8 | 4.28 | 
19 | C=C1c2cccc(O)c2C(=O)C2=C(O)[C@]3(O)C(=O)C(C(N)=O)=C(O)[C@@H](N(C)C)[C@@H]3[C@@H](O)[C@H]12 [methacycline hydrochloride] |  |  | 25.54 | 6.43 | 120 | 25.2 | 
20 | COc1cc(NC(C)CCCN)c2ncccc2c1 (stereo not shown) [primaquine phosphate] |  |  | 1.58 | 6.56 | 102 | 7.17 | 
21 | O=C(O)c1ccccc1Nc1ccc(CCc2ccc(Cl)c(Cl)c2)cc1 [PD-118057] | 81.81 | 7.76 | 11.19 |  |  |  | IC50 ([1]; read-out: RdRp IC50): > 20 µM
22 | OC[C@H]1O[C@H]([S-])[C@H](O)[C@@H](O)[C@@H]1O.[Au+] [aurothioglucose] | 4.77 | 100.73 | 13.9 |  |  |  | DTT nsp13 inhibition [%] 20 µM (DTT HC Helicase inhibition [%]) [2]: 98.65%; IC50 ([2]; read-out: DTT Helicase IC50): 10.6 µM; IC50 ([2]; read-out: Helicase IC50): 1.95 µM; ATPase inhibition [%] 20 µM (HC Helicase ATPase inhibition [%]) [4]: 106.07%
23 | O=C(O)c1cc(/N=N/c2ccc(O)c(C(=O)O)c2)ccc1O [olsalazine sodium] |  |  | 12.75 | 14.4 | 84.7 |  | 
24 | CC1(C)C(/C=C/C=C/C=C/C=C2\N(CCCCS(=O)(=O)O)c3ccc4ccccc4c3C2(C)C)=[N+](CCCCS(=O)(=O)[O-])c2ccc3ccccc3c21 [cardiogreen] | 4.44 |  | 26.52 |  |  |  | DTT Helicase unwinding inhibition [%] 2.5 µM triplicates [2]: 65% and 65.01%; DTT nsp13 inhibition [%] 20 µM (DTT HC Helicase inhibition [%]) [2]: 94.06%; Helicase unwinding inhibition 2.5 µM triplicates [2]: 66.59; IC50 ([2]; read-out: DTT Helicase IC50): 3.85 µM; IC50 ([2]; read-out: Helicase IC50): 3.57 µM; ATPase inhibition [%] 20 µM (HC Helicase ATPase inhibition [%]) [4]: 97.11%; DTT Helicase ATPase activity PLUS DNA substrate 2 µM [4]: 51.49; DTT Helicase ATPase activity [%] 2 µM [4]: 60.43%; Helicase ATPase activity PLUS DNA substrate 2 µM [4]: 32.88; Helicase ATPase activity [%] 2 µM [4]: 45.65%; gain of ATPase activity reduction in the presence of dsDNA substrate [4]: 10–15%; remaining NTPase activity [4]: 60.4%
